The test can be described thus: Anti-oxidation action, DPPH radical trapping (Example 2). The conditions noted are these: absorbance at 517 nm reduced to half, 30 minutes. The protocol:
An ethanol solution of a stable radical 1,1-diphenyl-2-picryl-hydrazyl (DPPH) has an absorption at 517 nm in blue. When a radical trapping substance is added to this solution, the solution is discolored depending on the amount of the trapping substance added. This phenomenon was utilized in this method. First, 1 ml of ethanol, 1 ml of an ethanol solution of the extract (concentration: 0 to 100 μg/ml), 2 ml of 0.2 M acetic acid buffer solution (pH 5.5) and 1 ml of DPPH solution (2.0×10^−7 mol/ml ethanol solution) were mixed, and the mixture was allowed to stand for 30 minutes. Then, the absorbance of this mixed solution was determined at 517 nm. On the other hand, a mixture solution substituting 1 ml of ethanol for the DPPH solution was used as a blank, and the absorbance of this mixture solution was determined at 517 nm in the same manner as the above. Then, the amount of the extract required to reduce the absorbance to half was calculated, and this was used as an indicator of anti-oxidation. As comparative examples, α-tocopherol and green tea were used in place of the extract, and the anti-oxidation power thereof was investigated.
For orientation: DPPH is a stable violet radical that fades when it is reduced.

For the compound `Cc1c(C)c2c(c(C)c1O)CC[C@@](C)(CCC[C@H](C)CCC[C@H](C)CCCC(C)C)O2` [α-tocopherol], the “Anti-oxidation power: the amount required to trap 1.0 × 10^−7 mol DPPH” value is listed as 21 μg.

The record behind these values is US20030072824A1, “Ume extract having medicinal effects and compositions containing the same” (priority 1998, published 2003).
